Reference: patent US20090291945A1, “CYSTEINE PROTEASE INHIBITORS” (Teijin Pharma Limited, priority 2008, published 2009)

How the values were obtained:
cathepsin K = target: T1, cathepsin K (Homo sapiens, UniProt P43235); test: Cathepsin K inhibitory activity (fluorescent substrate Z-Leu-Arg-MCA); format: biochemical; conditions: enzyme expressed in HEK293T; 15 min preincubation, 30 min reaction at room temperature, pH 5.5; read-out: Activity Intensity (cathepsin K inhibitory activity, pIC50 class) (converted)
T1 construct: the active enzyme was obtained as the enzyme fraction by using detergent containing lysis buffer; made in house; host or cells: HEK293T (GenHunter Corporation), transient expression; detergent lysate used as enzyme fraction
T1 sequence (P43235 115-329): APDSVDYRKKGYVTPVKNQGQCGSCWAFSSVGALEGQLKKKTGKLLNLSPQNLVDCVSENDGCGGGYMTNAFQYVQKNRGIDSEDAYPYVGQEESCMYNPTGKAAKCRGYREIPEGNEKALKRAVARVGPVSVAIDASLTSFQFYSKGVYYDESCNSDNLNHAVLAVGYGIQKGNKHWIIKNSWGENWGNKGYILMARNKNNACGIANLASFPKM
Summary of the method: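 Enzyme was HEK293T-expressed cathepsin K in pH 5.5 acetate buffer with 2 mM DTT, preincubated 15 min at room temperature with compound. Reaction started with Z-Leu-Arg-MCA (solution prepared at 10 μM), run 30 min, and AMC fluorescence read at 355/460 nm. IC50 taken from the curve of % inhibition vs DMSO.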

[1] = Metabolic stability test using human liver microsome; format: in vitro ADME; conditions: NADPH, 37° C., 25 minutes versus 0 minute, LC/MS peak area
Description: For the compounds synthesized according to the method of the above Examples and the compounds of formula (B) (the compounds disclosed in WO2002/070517), the metabolic stability test using the human liver microsome was performed and the residual rate of each compound was calculated.
To a human liver microsome solution (950 μL) was added a test compound solution (10 μL, 100 μM, acetonitrile solution) on an ice bath and the solution was divided into two equal parts, solution A and solution B. Note that the composition of the human liver microsome solution was as follows.
20 mg/mL protein human liver microsome (Xenotech LLC Lenexa, US): 10 μL 500 mM potassium phosphate buffer solution (pH 7.4): 200 μL 10 mM EDTA solution: 100 μL 60 mM MgCl2 solution: 50 μL 100 mM glucose-6-phosphate solution: 50 μL 100 I.U./mL glucose-6-phosphate dehydrogenase solution: 10 μL purified water: 530 μL
To the solution A (480 μL) was added acetonitrile (500 μL) on an ice bath, and then 25 mM NADPH solution (20 μL) was added. After vortexing, the mixture was centrifuged (3,000 rpm) at 4° C. for 10 minutes, and the supernatant was taken as the sample at the reaction time of 0 minute.
To the solution B (480 μL) was added 25 mM NADPH solution (20 μL). The mixture was incubated at 37° C. for 25 minutes. The reaction was quenched with acetonitrile (500 μL) and vortexing. The mixture was centrifuged (3,000 rpm) at 4° C. for 10 minutes, and the supernatant was taken as the sample at the reaction time of 25 minutes.
LC/MS measurement was performed for the samples at the reaction time of 0 minute and the reaction time of 25 minutes. Based on the peak area of the target molecular weight in the MS measurement, the residual rate of the sample at the reaction time of 25 minutes to the sample at the reaction time of 0 minute was calculated in percentage.

## CC[C@@H](CNc1ccc(OCCCC(=O)O)cc1OC)NC(=O)[C@H](CC(C)C)N[C@@H](c1ccccc1)C(F)(F)F [Compound 155]
Cathepsin K
  IC50: ≤ 3.16 nM
[1]
  Residual Rate at 25 minutes (%): 31%

## CC(C)C[C@H](N[C@@H](c1ccccc1)C(F)(F)F)C(=O)N[C@@H](CCCC(=O)O)CNc1ccc(N2CCOCC2)cc1 [Compound 159, (5S)-5-{(2S)-2-[((1S)-2,2,2-trifluoro-1-phenylethyl)amino]-4-methylpentanoylamino}-6-[(4-morpholin-4-ylphenyl)amino]hexanoic acid]
Cathepsin K
  IC50: ≤ 3.16 nM
[1]
  Residual Rate at 25 minutes (%): 100%

## CC(C)(F)C[C@H](N[C@@H](c1ccccc1)C(F)(F)F)C(=O)N[C@@H](CCCC(=O)O)CNc1ccc(N2CCOCC2)cc1 [Compound 160, (5S)-5-{(2S)-2-[((1S)-2,2,2-trifluoro-1-phenylethyl)amino]-4-fluoro-4-methylpentanoylamino}-6-[(4-morpholin-4-ylphenyl)amino]hexanoic acid]
Cathepsin K
  IC50: ≤ 3.16 nM
[1]
  Residual Rate at 25 minutes (%): 90%
